Values joined by “and” are separate entries in the source; they are usually repeats but may differ in a detail not shown here. Identical values can stand only once.
Experiments:
AfUGM [1] = molecular target: T1, AfUGM (Aspergillus fumigatus, UniProt Q4W1X2); assay: Stopped-flow kinetics of flavin reduction of AfUGM by NAD; assay type: biochemical; settings: for kred / Kd / kred/Kd: AfUGM wild type; for kred / Kd: anaerobic, 15 °C; for kred: pH 7.0, flavin absorbance 452 nm; for Kd: pH 7.0, from fit of kobs; for kred/Kd: catalytic efficiency
AfUGM [2] = molecular target: T1, AfUGM; assay: Kinetic isotope effect on flavin reduction of AfUGM with deuterated coenzymes; assay type: biochemical
AfUGM R91A = AfUGM R91A (Aspergillus fumigatus, UniProt Q4W1X2, R91A); assay type: biochemical; settings: R91A mutant
AfUGM S93A = AfUGM S93A (Aspergillus fumigatus, UniProt Q4W1X2, S93A); assay type: biochemical; settings: S93A mutant
[3] = molecular target: Mycobacterium tuberculosis UGM (Mycobacterium tuberculosis, UniProt P9WIQ1); assay: Reduction of Mycobacterium tuberculosis UGM by NADPH; assay type: biochemical; settings: estimated (Figure S5)
TcUGM = settings: cited from earlier work
[4] = pro-R H atom substituted with D

NC(=O)C1=CN([C@@H]2O[C@H](COP(=O)(O)OP(=O)(O)OC[C@H]3O[C@@H](n4cnc5c(N)ncnc54)[C@H](O)[C@@H]3O)[C@@H](O)[C@H]2O)C=CC1 [NADH]
kred (AfUGM [1]): 0.2 s⁻¹ and 0.172 ± 0.003 s⁻¹
Kd (AfUGM [1]): 260 ± 20 µM
kred/Kd (AfUGM [1]): 670 M⁻¹ s⁻¹ and 670 ± 50 M⁻¹ s⁻¹
KIE on flavin reduction (AfUGM [2]; [4]): 6.0 ± 0.7

NC(=O)C1=CN([C@@H]2O[C@H](COP(=O)(O)OP(=O)(O)OC[C@H]3O[C@@H](n4cnc5c(N)ncnc54)[C@H](OP(=O)(O)O)[C@@H]3O)[C@@H](O)[C@H]2O)C=CC1 [NADPH]
kred (AfUGM [1]): 3 s⁻¹ and 2.98 ± 0.078 s⁻¹
Kd (AfUGM [1]): 25 ± 2 µM
kred/Kd (AfUGM [1]): 120000 M⁻¹ s⁻¹ and 120000 ± 10000 M⁻¹ s⁻¹
catalytic efficiency of AfUGM relative to TcUGM (AfUGM [1]; kred/Kd AfUGM vs TcUGM): 20 times
Kd (AfUGM R91A): 330 ± 20 µM
Variational Effect (kred/Kd of variant)/(kred/Kd of AfUGM) (AfUGM R91A): 0.008 ± 0.001
kred/Kd (AfUGM R91A): 980 ± 70 M⁻¹ s⁻¹
kred (AfUGM R91A; anaerobic, 15 °C, pH 7.0): 0.313 ± 0.008 s⁻¹
Kd (AfUGM S93A): 21 ± 8 µM
Variational Effect (kred/Kd of variant)/(kred/Kd of AfUGM) (AfUGM S93A): 0.07 ± 0.03
kred/Kd (AfUGM S93A): 8000 ± 3000 M⁻¹ s⁻¹
kred (AfUGM S93A; anaerobic, 15 °C, pH 7.0): 0.17 ± 0.01 s⁻¹
kred [3]: 0.00002 s⁻¹
KIE on flavin reduction (AfUGM [2]; [4]): 3.0 ± 0.1
Kd (TcUGM): 98 µM
kred (TcUGM): 0.6 s⁻¹
kred/Kd (TcUGM): 6000 M⁻¹ s⁻¹

[2H]C1C=CN(C2OC(COP(=O)(O)OP(=O)(O)OCC3OC(n4cnc5c(N)ncnc54)C(OP(=O)(O)O)C3O)C(O)C2O)C=C1C(N)=O (stereo not shown) [pro-S NADPD]
KIE on flavin reduction (AfUGM [2]; pro-S deuterated coenzyme used to reduce AfUGM): 0.93 ± 0.03
